Data as given in patent US20130281399A1, “TREATMENT OF DISEASES BY EPIGENETIC REGULATION” (RVX Therapeutics Inc., priority 2012, published 2013).

Key:
[1] = molecular target: T1, Brd4 bromodomain 1 (Homo sapiens, UniProt O60885); assay: Inhibition of binding of tetra-acetylated histone H4 to Brd4 bromodomain 1 (TR-FRET); conditions: His-tagged Brd4 bromodomain 1 200 nM, tetra-acetylated histone H4 peptide 25-50 nM, 2 hours room temperature
T1 construct: made in house; host or cells: E. coli BL21(DE3)
Method: Proteins were cloned and overexpressed with a N-terminal 6×His tag, then purified by nickel affinity followed by size exclusion chromatography. Briefly, E. coli BL21(DE3) cells were transformed with a recombinant expression vector encoding N-terminally Nickel affinity tagged bromodomains from Brd2, Brd3, Brd4. Cell cultures were incubated at 37° C. with shaking to the appropriate density and induced overnight with IPTG. The supernatant of lysed cells was loaded onto Ni-IDA column for purification. Eluted protein was pooled, concentrated and further purified by size exclusion chromatography. Fractions representing monomeric protein were pooled, concentrated, aliquoted, and frozen at −80° C. for use in subsequent experiments.
For inhibition assays, serially diluted test compound was added to these reactions in a 0.2% final concentration of DMSO. Final buffer concentrations were 30 mM HEPES pH 7.4, 30 mM NaCl, 0.3 mM CHAPS, 20 mM phosphate pH 7.0, 320 mM KF, 0.08% BSA). […] The binding inhibitory activity was shown by a decrease in 665 nm fluorescence relative to 620 nm. IC50 values were determined from a dose response curve.

Row | SMILES | melting point | FRET activity (<50 uM) [1]
1 | COc1cc(OC)c2c(=O)[nH]c(-c3ccc(N4CCC(O)CC4)cc3)nc2n1 [Example 8, 2-(4-(4-Hydroxypiperidin-1-yl)phenyl)-5,7-dimethoxypyrido[2,3-d]pyrimidin-4(3H)-one] | 284 to 286 °C | Active
2 | COCCOc1cc(OC)c2c(=O)[nH]c(-c3ccc(N4C[C@@H](C)N(C(C)=O)[C@@H](C)C4)cc3)nc2c1 [Example 9, 2-(4-((3R,5S)-4-Acetyl-3,5-dimethylpiperazin-1-yl)phenyl)-5-methoxy-7-(2-methoxyethoxy)quinazolin-4(3H)-one] | 225 to 227 °C | Active
3 | COc1cc(OC)c2c(=O)[nH]c(-c3cc(C)c(OCCN4C(=O)CN(C(C)C)C4=O)c(C)c3)nc2c1 [Example 74, 3-(2-(4-(5,7-Dimethoxy-4-oxo-3,4-dihydroquinazolin-2-yl)-2,6-dimethylphenoxy)ethyl)-1-isopropylimidazolidine-2,4-dione] | 219 to 221 °C | Active
4 | COc1cc(OC)c2c(=O)[nH]c(-c3ccc(OCCN4CCCC4)cc3)nc2c1 [Example 76, 5,7-Dimethoxy-2-(4-(2-(pyrrolidin-1-yl)ethoxy)phenyl)quinazolin-4(3H)-one] | 226 to 227 °C | Active
5 | COc1cc(OC)c2c(=O)[nH]c(-c3cc(C)c(OCCCCN4CCCC4)c(C)c3)nc2c1 [Example 78, 2-(3,5-Dimethyl-4-(4-(pyrrolidin-1-yl)butoxy)phenyl)-5,7-dimethoxyquinazolin-4(3H)-one] | 180 to 181 °C | Active
6 | COc1cc(OC)c2c(=O)[nH]c(-c3cc(C)c(OCCN4C(=O)NC(c5ccccc5)C4=O)c(C)c3)nc2c1 (stereo not drawn) [Example 79, 3-(2-(4-(5,7-Dimethoxy-4-oxo-3,4-dihydroquinazolin-2-yl)-2,6-dimethylphenoxy)ethyl)-5-phenylimidazolidine-2,4-dione] | 219.6 to 221.4 °C | Active
7 | COc1cc(OC)c2c(=O)[nH]c(-c3ccc(CN4C(=O)CNC4=O)cc3)nc2c1 [Example 80, 3-(4-(5,7-Dimethoxy-4-oxo-3,4-dihydroquinazolin-2-yl)benzyl)imidazolidine-2,4-dione] | 317 to 318 °C | Inactive
8 | COc1cc(OC)c2c(=O)[nH]c(-c3ccc(CN4CCC(NC(C)C)CC4)cc3)nc2c1 [Example 95, 2-(4-((4-(Isopropylamino)piperidin-1-yl)methyl)phenyl)-5,7-dimethoxyquinazolin-4(3H)-one] |  | Active
9 | COCCOc1cc(OC)cc2nc(-c3cc(C)nc(C)c3)[nH]c(=O)c12 [Example 105, 2-(2,6-Dimethylpyridin-4-yl)-7-methoxy-5-(2-methoxyethoxy)quinazolin-4(3H)-one] |  | Active
10 | COc1cc(OCCOC(C)C)cc2nc(-c3cc(C)nc(C)c3)[nH]c(=O)c12 [Example 107, 2-(2,6-Dimethylpyridin-4-yl)-7-(2-isopropoxyethoxy)-5-methoxyquinazolin-4(3H)-one] | 188 to 189 °C | 
11 | COc1cccc(-c2nc3cc(OC)cc(OC)c3c(=O)[nH]2)c1 [Example 116, 5,7-Dimethoxy-2-(3-methoxyphenyl)quinazolin-4(3H)-one] |  | Inactive

The remaining lines, values ahead:

Row | melting point | FRET activity (<50 uM) [1] | SMILES
12 | 228 to 230 °C |  | COc1cc(OC)c2c(=O)[nH]c(-c3cc(C)c(OCCN4CCCC4)c(C)c3)nc2n1
13 | 157 to 158 °C | Active | COc1cccc2nc(-c3cc(C)c(OCCN4CCCC4)c(C)c3)[nH]c(=O)c12 [Example 66, 2-(3,5-Dimethyl-4-(2-(pyrrolidin-1-yl)ethoxy)phenyl)-5-methoxyquinazolin-4(3H)-one]
14 | 209 to 210 °C | Inactive | Cc1cc(-c2nc3cc(Cl)cc(Cl)c3c(=O)[nH]2)cc(C)c1OCCN1CCCC1 [Example 67, 5,7-Dichloro-2-(3,5-dimethyl-4-(2-(pyrrolidin-1-yl)ethoxy)phenyl)quinazolin-4(3H)-one]
15 | 213 to 214 °C | Active | COc1cc(OC)c2c(=O)[nH]c(-c3cc(C)c(OCCN4CCN(C(C)=O)CC4)c(C)c3)nc2c1 [Example 68, 2-(4-(2-(4-Acetylpiperazin-1-yl)ethoxy)-3,5-dimethylphenyl)-5,7-dimethoxyquinazolin-4(3H)-one]
16 | 218 to 219 °C | Active | COc1cc(OC)c2c(=O)[nH]c(-c3cc(C)c(OCCn4ccnc4)c(C)c3)nc2c1 [Example 69, 2-(4-(2-(1H-Imidazol-1-yl)ethoxy)-3,5-dimethylphenyl)-5,7-dimethoxyquinazolin-4(3H)-one]
17 | 218 to 220 °C | Inactive | COc1ccc2c(=O)[nH]c(-c3cc(C)c(OCCN4CCCC4)c(C)c3)nc2c1 [Example 70, 2-(3,5-Dimethyl-4-(2-(pyrrolidin-1-yl)ethoxy)phenyl)-7-methoxyquinazolin-4(3H)-one]
18 | 180 to 182 °C | Active | COc1cc(OC)c2c(=O)[nH]c(-c3cc(C)c(OCCN4CCN(C)CC4)c(C)c3)nc2c1 [Example 71, 2-(3,5-Dimethyl-4-(2-(4-methylpiperazin-1-yl)ethoxy)phenyl)-5,7-dimethoxyquinazolin-4(3H)-one]
19 | 194 to 196 °C | Active | COc1cc(OC)c2c(=O)[nH]c(-c3cc(C)c(CCCN4CCCC4)c(C)c3)nc2c1 [Example 77, 2-(3,5-Dimethyl-4-(3-(pyrrolidin-1-yl)propyl)phenyl)-5,7-dimethoxyquinazolin-4(3H)-one]
20 | 179 to 180 °C | Inactive | Cc1cc(-c2nc3cccc(Cl)c3c(=O)[nH]2)cc(C)c1OCCN1CCCC1 [Example 83, 5-Chloro-2-(3,5-dimethyl-4-(2-(pyrrolidin-1-yl)ethoxy)phenyl)quinazolin-4(3H)-one]
21 | 198 to 199 °C | Active | COc1cc(OC)c2c(=O)[nH]c(-c3cc(C)c(OCCN4CCCCCC4)c(C)c3)nc2c1 [Example 84, 2-(4-(2-(Azepan-1-yl)ethoxy)-3,5-dimethylphenyl)-5,7-dimethoxyquinazolin-4(3H)-one]
22 | 204 to 205 °C | Active | COc1cc(OC)c2c(=O)[nH]c(-c3cc(C)c(OCCN4CCC4)c(C)c3)nc2c1 [Example 86, 2-(4-(2-(Azetidin-1-yl)ethoxy)-3,5-dimethylphenyl)-5,7-dimethoxyquinazolin-4(3H)-one]
23 | 111.8 to 113.6 °C | Active | COc1cc(OC)c2c(=O)[nH]c(-c3cc(C)c(OCCN4CC(NC(C)=O)C4)c(C)c3)nc2c1 [Example 87, N-(1-(2-(4-(5,7-Dimethoxy-4-oxo-3,4-dihydroquinazolin-2-yl)-2,6-dimethylphenoxy)ethyl)azetidin-3-yl)acetamide]
24 |  | Active | COc1cc(OC)c2c(=O)[nH]c(-c3cc(C)c(OCCN4C(=O)CCC4=O)c(C)c3)nc2c1 [Example 97, 1-(2-(4-(5,7-Dimethoxy-4-oxo-3,4-dihydroquinazolin-2-yl)-2,6-dimethylphenoxy)ethyl)pyrrolidine-2,5-dione]
